From patent US7951772B2, “Tumor-activated prodrug compounds and treatment” (La Region Wallonne, priority 1994, dated 2011)
Values after ≈ are worked out from the molar mass of the structure shown. Like-named read-outs stand apart in the source and are kept apart here.

How the values were obtained:
[1] = system: conditioned medium from HepG2 hepatocarcinoma cells; experiment: Degradation in conditioned medium from HepG2 hepatocarcinoma cells; conditions: β-Ala-Leu-Ala-Leu-DNR incubated at 37 C for 2 hours in HepG2 conditioned medium
[2] = system: conditioned medium from MCF7/6 mammary carcinoma cells; experiment: Degradation in conditioned medium from MCF7/6 mammary carcinoma cells (HPLC); conditions: share of each species by HPLC; for Starting material or Metabolite, Time 0: β-Ala-Leu-Ala-Leu-DNR incubated at 37 C in MCF7/6 conditioned medium concentrated 20 of 40 times; for Starting material or Metabolite, After 1 hour / Starting material or Metabolite, After 2 hours: β-Ala-Leu-Ala-Leu-DNR incubated at 37 C in MCF7/6 conditioned medium
[3] = system: conditioned medium from HepG2 hepatocarcinoma cells
[4] = system: MCF7/6 human mammary carcinoma cells; experiment: Cytotoxicity with respect to MCF7/6 tumor cells (72 h, Bradford protein); conditions: MCF7/6 cells; for IC50: 72 hours with compound then 48 hours without
Protocol: (§7) After 72 hours, the cells are incubated for 48 hours in the absence of anthracycline, and the cytotoxicity is determined by measuring the cellular proteins by Bradford's technique. […] The experimental points are adjusted to a sigmoid curve which enables the point of inflection, corresponding to the dose at which half of the cells survive (IC50), to be calculated.
(§8) After 72 hours, the cells are incubated for 48 hours in the absence of the anthracycline, and the cytotoxicity is determined by measuring the cellular proteins by Bradford's technique. […] The experimental points are adjusted to a sigmoid curve which enables the point of inflection, corresponding to the dose at which half of the cells survive (IC50), to be calculated.

[5] = system: conditioned medium from HT29 colon carcinoma cells
[6] = system: conditioned medium from MCF7/6 mammary carcinoma cells
MRC5 fibroblast cells [7] = system: MRC5 fibroblast cells
Protocol: as §7, §8

[8] = system: MCF7/6 human mammary carcinoma cells
Protocol: (§9) After various times, the accumulation of the prodrugs and of their fluorescent metabolites were determined by HPLC after extraction of the products at basic pH according to a method developed in the laboratory. Accumulations, expressed in μg/mg of cellular proteins, were compared with those of DNR and of DOX as well as with those of L-Leu-DNR and L-Leu-DOX. The metabolites were identified by determining the retention times of reference products synthesized in the laboratory.
(§10) After various times, the accumulation of the prodrugs and of their fluorescent metabolites was determined by HPLC after extraction of the products at basic pH according to a method developed in the laboratory. Accumulations, expressed in μg/mg of cellular proteins, were compared with those of DOX and of L-Leu-DOX. The metabolites were identified by determining the retention times of reference products synthesized in the laboratory.

MRC5 fibroblast cells [9] = experiment: Cytotoxicity with respect to MRC5 normal cells (72 h, Bradford protein); conditions: MRC5 cells; for IC50: 72 hours with compound then 48 hours without
Protocol: as §7, §8

[10] = system: MCF7/6 human mammary carcinoma cells; remark: listed apart in the source
Protocol: as §7, §8

[11] = system: MCF7/6 human mammary carcinoma cells; experiment: Accumulation in MCF7/6 tumor cells (HPLC of cell extracts)
Protocol: as §9, §10

female NMRI mice [12] = experiment: In vivo acute toxicity, intravenous route; design: species or system mouse; conditions: i.v., total dose of 60 mg/kg as two injections of 30 mg/kg on two consecutive days
[13] = Degradation in human blood at 37 C
female NMRI mice [14] = experiment: In vivo acute toxicity, intraperitoneal route, 5 consecutive days; design: species or system mouse; conditions: for mortality: i.p. 5 consecutive days
Protocol: (§1) In the in vivo study of the acute toxicity of a medicinal product, determination of the median lethal dose (lethal dose for 50% of the animals or LD50) occupies an important place. […] The LD50 is a simple test in which increasing amounts of the test product are administered intravenously (i.v.) in a single injection and intraperitoneally (i.p.) in 5 injections, one injection daily for 5 consecutive days. The mortality of the animals is monitored as a function of time. At the end of the observation period, usually 30 days, the value of the LD50 is obtained by linear regression of the percentage mortality (on a probit scale) as a function of the logarithm of the dose administered (O. K. Chan and A. W. Hayes, Principles and methods for acute toxicity and eye irritancy, in Principles and methods of toxicology, Second edition. Ed. by A. W. Hayes, Raven Press, New York, USA (1989), pp. 169-220; D. Deprez-De Campeneere and A. Trouet. DNA-Anthracycline Complexes. I. Toxicity in mice and chemotherapeutic activity against L1210 Leukaemia off Daunorubicin-DNA and Adriamycin-DNA, Eur. J. Cancer, 16 (1980), pp. 981-986; H. E. Skipper, L. H. Schmidt, A. Goldin and J. M. Venditti. A manual on quantitative drug evaluation in experimental tumor systems, Cancer Chemother. Rep. 17 (1.962), pp. 1-178).
(§2) The acute toxicity of these two drugs was studied via the i.v. and i.p. routes on a single strain of mouse. Female NMRI mice (nonconsanguineous SPF-Han, approximately 5 weeks old and of mean weight 14.6 grams, supplied by IFFA-CREDO Belgium) remained in quarantine for one week.
(§3) Injections were performed systematically in the morning (single injection into the caudal vein for the i.v. route and injections on 5 consecutive days into the peritoneum for the i.p. route), using 1.0 ml syringes and sterile 30 G (i.v.) and 27 G (i.p) needles. All handling of animals was performed with gloves, and maintenance of the animals was performed systematically every week.
(§4) DNR was injected i.v. at doses of 10, 15, 20, 25, 30 and 35 mg/kg and i.p. at doses of 2.0; 2.5; 3.0 and 3.5 mg/kg.
(§5) The concentrations of the solutions were verified by spectrophotometry.
(§6) From the day of injection (DO) onwards, the mice were monitored clinically, with a daily record of dead mice. The weight of the mice was measured almost every day. The observation period was extended beyond one month so that the signs of late toxicity could be spotted more readily. At the end of the study, the surviving mice were sacrificed, according to the standards pertaining to animal experiments (D. B. McGregor. Ethics in experiments on animals, in Experiments in toxicology, First edition. Ed. by D. Anderson and D. M. Conning. The Royal Society of Chemistry and The Universities Press. Belfast, Ireland (1988), pp. 512-522).

female NMRI mice [15] = experiment: In vivo acute toxicity, intravenous route; design: species or system mouse; weight increase of the 3 surviving mice: dose or concentration left out as unconfirmed; conditions: i.v.; for mice dying: groups of 5
Protocol: as §1, §2, §3, §4, §5, §6

MRC5 fibroblast cells [16] = experiment: Accumulation in MRC5 normal fibroblast cells (HPLC of cell extracts)
Protocol: At various times, the accumulation of the prodrugs and of their fluorescent metabolites was determined by HPLC after extraction of the products at basic pH according to a method developed in the laboratory. Accumulations, expressed in μg/mg of cellular proteins, were compared with those of DNR and of L-Leu-DNR. The metabolites were identified by determining the retention times of reference products synthesized in the laboratory.
as §10

[17] = system: conditioned medium from anthracycline-resistant MCF7 cells (MCF7/ADR line); experiment: Degradation in conditioned medium from MCF7/ADR mammary carcinoma cells; assay type: in vitro ADME, human; conditions: 37 C, 1 hour
[18] = MCF7/6 cells, 6 hours of incubation, 10 μg eq. DNR/ml
[19] = MRC5 cells, 6 hours of incubation, 10 μg eq. DNR/ml

COc1cccc2c1C(=O)c1c(O)c3c(c(O)c1C2=O)C[C@@](O)(C(C)=O)C[C@@H]3O[C@H]1C[C@H](NC(=O)[C@H](CC(C)C)NC(=O)[C@H](C)N)[C@H](O)[C@H](C)O1 [L-Ala-L-Leu-DNR]
main metabolites found, % of the total fluorescence [1]: 8%
Starting material or Metabolite, Time 0 [2]: 0%
Starting material or Metabolite, After 1 hour [2]: <1%
Starting material or Metabolite, After 2 hours [2]: <1%

COc1cccc2c1C(=O)c1c(O)c3c(c(O)c1C2=O)C[C@@](O)(C(C)=O)C[C@@H]3O[C@H]1C[C@H](NC(=O)[C@@H](N)CC(C)C)C(O)[C@H](C)O1 (stereo partly drawn) [L-Leu-DNR, N-L-leucyldaunorubicin]
main metabolites found, % of the total fluorescence [3]: 27%
IC50 [4]: 1.30 ± 0.56 mg/L (≈ 2.03 µM)
main metabolites found, % of the total fluorescence [5]: 82%
Hydrolysis, MCF-7/6 Conditioned Medium [6]: −
Starting material or Metabolite, After 1 hour [6]: 83%
Starting material or Metabolite, After 2 hours [6]: 90%
Starting material or Metabolite, Time 0 [6]: 0%
times less cytotoxic than DNR (MRC5 fibroblast cells [7]): 172 times
DNR found intracellularly, % of the total intracellular fluorescence [8]: 14%
IC50 (MRC5 fibroblast cells [9]): 1.78 ± 0.23 mg/L (≈ 2.78 µM)
times less cytotoxic than DNR [10]: 14 times

COc1cccc2c1C(=O)c1c(O)c3c(c(O)c1C2=O)C[C@@](O)(C(C)=O)C[C@@H]3O[C@H]1C[C@H](NC(=O)[C@H](CC(C)C)NC(=O)[C@H](C)NC(=O)[C@H](CC(C)C)NC(=O)CCN)[C@H](O)[C@H](C)O1 [β-Ala-Leu-Ala-Leu-DNR, β-alanyl-L-leucyl-L-alanyl-L-leucyldaunorubicin]
level of accumulation (unchanged form) ([11]; MCF7/6 cells, 10 μg eq. DNR/ml, 24 hours of incubation): ~1 μg/mg of cellular proteins
Intracellular concentration, DNR formed [11, 18]: 0.9 μg/mg cellular proteins
Intracellular concentration, Leu-DNR formed [11, 18]: 4.5 μg/mg cellular proteins
Intracellular concentration, Starting material [11, 18]: 0.3 μg/mg cellular proteins
DNR found intracellularly, % of the total intracellular fluorescence ([11]; MCF7/6 cells, after 24 hours of incubation): approximately 40%
intracellular levels of DNR in MCF7/6 tumor line, times as high as in MRC5 fibroblasts ([11]; after 24 hours of incubation): 12 times
times less cytotoxic than DNR ([4]; 72 hours): 244 times
IC50 [4]: 22.00 ± 7.31 mg/L (≈ 24.6 µM)
Starting material or Metabolite, Time 0 [2]: 100%
Starting material or Metabolite, After 1 hour [2]: 10%
Starting material or Metabolite, After 2 hours [2]: 2.6%
mortality (female NMRI mice [12]): no mortality
stability when incubated in human blood [13]: stable
mortality (female NMRI mice [14]; total dose of 60 mg/kg, groups of 5): 2 mice die on day 22 and a third on day 35
mortality (female NMRI mice [14]; total doses of between 10 and 45 mg/kg): no mortality
times less toxic than DNR (acute toxicity) (female NMRI mice [14]; i.p. administration on 5 consecutive days): at least 30 times
LD50 (dose close to) (female NMRI mice [14]; i.p. on 5 consecutive days, total dose): ~60 mg/kg
increase in mean weight (female NMRI mice [14]; i.p., 45 mg/kg, over the next 30 days after 7 stable days): 20%
day on which surviving mice recover their initial weight (female NMRI mice [14]; i.p., total dose of 60 mg/kg): 36 days
decrease of mean weight (female NMRI mice [14]; i.p., total dose of 60 mg/kg, in 15 days): ~15%
weight gain (female NMRI mice [14]; i.p., total doses of between 10 and 45 mg/kg, in 40 days): +40%
time of death after injection (female NMRI mice [15]): ≤ 5 min
increase of mean weight (female NMRI mice [15]; 30 mg/kg, in 40 days): ~40%
time of death after injection (female NMRI mice [15]; 120 mg/kg): ≤ 7 min
mice dying (female NMRI mice [15]; 120 mg/kg): 5
mortality (female NMRI mice [15]; dose of 30 mg/kg): no mortality
mice dying (female NMRI mice [15]): 2
weight increase of the 3 surviving mice (female NMRI mice [15]; in 40 days): ~30%
times less cytotoxic than DNR (MRC5 fibroblast cells [9]; 72 hours): 2230 times
IC50 (MRC5 fibroblast cells [9]): 23.14 ± 4.81 mg/L (≈ 25.8 µM)
level of accumulation (MRC5 fibroblast cells [16]; MRC5 cells, 10 μg eq. DNR/ml, 24 hours of incubation): ~3.3 μg/mg of cellular proteins
Intracellular concentration, DNR formed (MRC5 fibroblast cells [16]; [19]): 0.08 μg/mg cellular proteins
Intracellular concentration, Leu-DNR formed (MRC5 fibroblast cells [16]; [19]): 3.1 μg/mg cellular proteins
Intracellular concentration, Starting material (MRC5 fibroblast cells [16]; [19]): 0.03 μg/mg cellular proteins
cell entry, times less than DNR (MRC5 fibroblast cells [16]; after 6 hours): 300 times
metabolite found [17]: the only metabolite now to be found is L-Leu-DNR
